ChEMBL document CHEMBL1201862, “PubChem BioAssay data set” (2004)
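Interpolation was linear, between the two tested concentrations surrounding the appropriate level; five concentrations were tested over 48 hours in 96-well plates. GI50 = concentration required for 50% inhibition of growth.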 Calls of active or inactive are those of the source. Cut-off read from the data, not from the text of the source: active = GI50 up to about 1.1 µM and inactive = higher.

What was measured:
Test in all cases: NCI-60 cell line screen, 48 h
[1] = tested on: HOP-62
[2] = tested on: SK-MEL-2
[3] = tested on: TK-10
[4] = tested on: MOLT-4
[5] = tested on: HOP-92
[6] = tested on: NCI-H23
[7] = tested on: M19-MEL
[8] = tested on: NCI-H522
[9] = tested on: KM12
[10] = tested on: RXF 393
[11] = tested on: UO-31
[12] = tested on: U-251
[13] = tested on: HOP-18
[14] = tested on: OVCAR-3
[15] = tested on: HL-60
[16] = tested on: XF498
[17] = tested on: SK-MEL-28
[18] = tested on: LOX IMVI
[19] = tested on: 786-0
[20] = tested on: SF-295
[21] = tested on: SNB-78
[22] = tested on: SNB-75
[23] = tested on: M14
[24] = tested on: KM-20L2
[25] = tested on: COLO 205
[26] = tested on: A498
[27] = tested on: DMS-273
[28] = tested on: SW-620
[29] = tested on: Malme-3M
[30] = tested on: K562
[31] = tested on: DLD-1
[32] = tested on: OVCAR-8
[33] = tested on: SF-539
[34] = tested on: IGROV-1
[35] = tested on: CAKI-1
[36] = tested on: A549
[37] = tested on: RXF 631
[38] = tested on: SNB-19
[39] = tested on: SN12C
[40] = tested on: CCRF-CEM
[41] = tested on: ACHN
[42] = tested on: HT-29
[43] = tested on: OVCAR-5
[44] = tested on: NCI-H226
[45] = tested on: SF-268
[46] = tested on: UACC-257
[47] = tested on: UACC-62
[48] = tested on: NCI-H460
[49] = tested on: HCT-116
[50] = tested on: OVCAR-4
[51] = tested on: LXFL 529
[52] = tested on: SK-MEL-5
[53] = tested on: SK-OV-3
[54] = tested on: HCT-15
[55] = tested on: EKVX
[56] = tested on: SR
[57] = tested on: DMS-114
[58] = tested on: RPMI-8226
[59] = tested on: HCC 2998

Measured: GI50

CC1(C)COC(c2cccnc2/C=N/O)=N1
> 100 µM: [54]
inactive: [1] > 100 µM | [2] > 100 µM | [3] > 100 µM | [4] > 100 µM | [5] > 100 µM | [6] > 100 µM | [7] > 100 µM | [8] > 100 µM | [9] > 100 µM | [10] > 100 µM | [11] > 100 µM | [12] > 100 µM | [13] > 100 µM | [14] > 100 µM | [15] > 100 µM | [16] > 100 µM | [17] > 100 µM | [18] > 100 µM | [19] > 100 µM | [20] > 100 µM | [21] > 100 µM | [22] > 100 µM | [23] > 100 µM | [24] > 100 µM | [25] > 100 µM | [26] > 100 µM | [27] > 100 µM | [28] 67.8 µM | [29] > 100 µM | [30] > 100 µM | [31] > 100 µM | [32] > 100 µM | [33] > 100 µM | [34] > 100 µM | [35] > 100 µM | [36] > 100 µM | [37] > 100 µM | [38] > 100 µM | [39] > 100 µM | [40] > 100 µM | [41] > 100 µM | [42] > 100 µM | [43] > 100 µM | [44] > 100 µM | [45] > 100 µM | [46] > 100 µM | [47] > 100 µM | [48] > 100 µM | [49] > 100 µM | [50] > 100 µM | [51] > 100 µM | [52] > 100 µM | [53] > 100 µM | [55] > 100 µM | [56] > 100 µM

COc1ccc(/C=C\c2cc(OC)c(O[Si](C)(C)C(C)(C)C)c(OC)c2)cc1
inactive: [1] > 100 µM | [2] 23.9 µM | [4] 15.8 µM | [5] 28.3 µM | [6] 54 µM | [7] 32.3 µM | [8] 38.5 µM | [9] 47.2 µM | [11] 80.9 µM | [12] 19.4 µM | [14] 55.5 µM | [16] 22.6 µM | [17] 13.2 µM | [19] 39.9 µM | [22] 64.9 µM | [57] 20.3 µM | [23] 45.4 µM | [24] 45.3 µM | [25] 68.9 µM | [26] 21 µM | [27] 44.4 µM | [28] 33.3 µM | [29] 34.8 µM | [30] 39.1 µM | [31] 45.3 µM | [32] 15.6 µM | [33] 37.8 µM | [34] > 100 µM | [35] 49.3 µM | [36] 38.6 µM | [37] 45.8 µM | [38] 47.6 µM | [39] 39.1 µM | [40] 23.7 µM | [41] 31.2 µM | [42] 15 µM | [43] 20.6 µM | [44] 31.8 µM | [45] 45.5 µM | [46] 21.7 µM | [47] 55 µM | [48] 33 µM | [49] 33.7 µM | [50] 76.6 µM | [51] 33.7 µM | [52] > 10 µM | [53] > 100 µM | [58] 27.4 µM | [55] 70 µM | [56] 19.7 µM | [59] 26.1 µM
